Values quoted from earlier work in patent US20140154346A1, “USE OF FENUGREEK EXTRACT TO ENHANCE FEMALE LIBIDO” (GE NUTRIENTS, INC., priority 2012, published 2014).

Test system: women with hypoactive sexual disorder
Conditions: 300 μg/day, 12 months; also increase in desire and decrease in stress

C[C@]12CC[C@H]3[C@@H](CCC4=CC(=O)CC[C@@]43C)[C@@H]1CC[C@@H]2O [testosterone]
frequency of satisfying sexual encounters: increased frequency
